Laboratory results from ChEMBL document CHEMBL1649413, “Structure-activity relationship of 4(5)-aryl-2-amino-1H-imidazoles, N1-substituted 2-aminoimidazoles and imidazo[1,2-a]pyrimidinium salts as inhibitors of biofilm formation by Salmonella typhimurium and Pseudomonas aeruginosa” (J Med Chem, 2011).
pIC50: −log10 of the molar value. Activity calls are given as the source filed them. The calls are words filed in the database; no cut-off is given here.

Key:
Pseudomonas aeruginosa [1] = test: Antibiofilm activity in Pseudomonas aeruginosa assessed as inhibition of biofilm formation at 25 degC after 24 hrs; assay type: functional, organism-based
Pseudomonas aeruginosa [2] = test: Antimicrobial activity against Pseudomonas aeruginosa assessed as inhibition of planktonic growth at 20 uM at 25 degC after 24 hrs; assay type: functional, organism-based
Pseudomonas aeruginosa [3] = test: Antimicrobial activity against Pseudomonas aeruginosa assessed as inhibition of planktonic growth at 40 uM at 25 degC after 24 hrs; assay type: functional, organism-based
Salmonella typhimurium [4] = test: Antibiofilm activity in Salmonella Typhimurium ATCC 14028 assessed as inhibition of biofilm formation at 25 degC after 24 hrs; assay type: functional, organism-based, Salmonella enterica subsp. enterica serovar Typhimurium; settings: Salmonella enterica, ATCC 14028, 24 h
Salmonella typhimurium [5] = test: Antimicrobial activity against Salmonella Typhimurium ATCC 14028 assessed as inhibition of planktonic growth at 400 uM at 25 degC after 24 hrs; assay type: functional, organism-based; settings: Salmonella enterica subsp. enterica serovar Typhimurium
Salmonella typhimurium [6] = test: Antimicrobial activity against Salmonella Typhimurium ATCC 14028 assessed as inhibition of planktonic growth at 20 uM at 25 degC after 24 hrs; assay type: functional, organism-based; settings: Salmonella enterica subsp. enterica serovar Typhimurium
Salmonella typhimurium [7] = test: Antimicrobial activity against Salmonella Typhimurium ATCC 14028 assessed as inhibition of planktonic growth at 10 uM at 25 degC after 24 hrs; assay type: functional, organism-based; settings: Salmonella enterica subsp. enterica serovar Typhimurium
Salmonella typhimurium [8] = test: Antimicrobial activity against Salmonella Typhimurium ATCC 14028 assessed as inhibition of planktonic growth at 40 uM at 25 degC after 24 hrs; assay type: functional, organism-based; settings: Salmonella enterica subsp. enterica serovar Typhimurium

| Compound | pIC50 (Pseudomonas aeruginosa [1]) | pIC50 (Salmonella typhimurium [4]) | inhibition (Salmonella typhimurium [5]) | also measured |
| --- | --- | --- | --- | --- |
| CCCCn1c(-c2ccc(Cl)cc2)cnc1N | 4.78 | 4.24 |  | inhibition (Pseudomonas aeruginosa [2]): inactive; inhibition (Pseudomonas aeruginosa [3]): inactive |
| Nc1ncc(-c2ccc(Cl)cc2)n1C1CCCCCCCCCCC1 | < 3.10 | 3.92 |  |  |
| c1cnc(NC2CCCCCCCCCCC2)nc1 |  |  | inactive |  |
| CCCCCCCCn1c(-c2cccc(Br)c2)cnc1N | 4.39 | 4.95 |  | inhibition (Pseudomonas aeruginosa [2]): inactive; inhibition (Salmonella typhimurium [6]): Active; inhibition (Pseudomonas aeruginosa [3]): Active; inhibition (Salmonella typhimurium [7]): inactive |
| Nc1ncc(-c2ccc(-c3ccccc3)cc2)n1C1CCCCC1 | 4.16 | 4.90 |  | inhibition (Salmonella typhimurium [6]): Active; inhibition (Salmonella typhimurium [8]): Active; inhibition (Salmonella typhimurium [7]): inactive |
| CCCCCCCCCCCn1c(-c2ccc(-c3ccccc3)cc2)cnc1N | < 3.40 | 4.22 |  |  |
| Nc1ncc(-c2ccccc2)n1C1CCCC1 | 4.90 | 4.15 |  | inhibition (Pseudomonas aeruginosa [2]): inactive |
| Nc1ncc(-c2ccccc2)n1C1CC1 | 4.46 | 4.05 |  |  |
| CCCCCCCC[n+]1c(-c2ccc(S(C)(=O)=O)cc2)cn2cccnc21.[O-][Cl+3]([O-])([O-])[O-] | 4.30 | 4.09 |  |  |
| Nc1ncc(-c2ccc(Br)cc2)n1Cc1ccccc1 | 4.24 | 4.13 |  |  |
| Cc1ccc(-c2cnc(N)n2C)cc1 | 4.50 | 4.21 |  |  |
| Cc1ccc(-c2cnc(N)[nH]2)cc1 | 4.34 | 4.11 |  |  |
| COc1ccc(CCn2c(-c3ccccc3)cnc2N)cc1OC | 4.28 | 3.73 |  |  |
| CCn1c(-c2ccc([N+](=O)[O-])cc2)cnc1N | 3.90 | 3.54 |  |  |
| CC(C)C[n+]1c(-c2ccc([N+](=O)[O-])cc2)cn2cccnc21.[O-][Cl+3]([O-])([O-])[O-] | < 3.10 | 3.39 |  |  |
| Brc1ccccc1Nc1ncccn1 |  |  | inactive |  |
| CCn1c(-c2ccccc2)cnc1N | 4.68 | 3.69 |  | inhibition (Pseudomonas aeruginosa [2]): inactive; inhibition (Pseudomonas aeruginosa [3]): inactive |
| Cc1ccc(CNc2ncccn2)c(C)c1 |  |  | inactive |  |
| COc1ccc(-c2[nH]c(N)nc2-c2ccccc2)cc1 |  | 4.11 |  |  |
| Cc1ccc(-c2cnc(N)n2C(C)C)cc1 | 3.62 | 3.69 |  |  |
| CCCCCCn1c(-c2ccccc2)cnc1N | 4.72 | 4.40 |  | inhibition (Pseudomonas aeruginosa [2]): inactive; inhibition (Pseudomonas aeruginosa [3]): inactive |
| CCCCCCCCNc1ncccn1 |  |  | inactive |  |
| CCCCn1c(-c2ccc(Br)cc2)cnc1N | 4.73 | 4.79 |  |  |

| Compound | pIC50 (Pseudomonas aeruginosa [1]) | pIC50 (Salmonella typhimurium [4]) | inhibition (Salmonella typhimurium [5]) | also measured |
| --- | --- | --- | --- | --- |
| CCCCCCCCCCCCCCn1c(-c2ccc(-c3ccccc3)cc2)cnc1N | < 3.40 | < 3.10 |  |  |
| CCCCCCCC[n+]1c(-c2cccc(Br)c2)cn2cccnc21.[O-][Cl+3]([O-])([O-])[O-] | 5.15 | 5.14 |  | inhibition (Pseudomonas aeruginosa [2]): inactive; inhibition (Salmonella typhimurium [6]): Active; inhibition (Pseudomonas aeruginosa [3]): Active; inhibition (Salmonella typhimurium [7]): inactive |
| Nc1ncc(-c2ccc(Cl)cc2)n1Cc1ccccc1 | 4.83 | 4.55 |  |  |
| O=[N+]([O-])c1ccc(-c2cn3cccnc3[n+]2Cc2ccccc2)cc1.[O-][Cl+3]([O-])([O-])[O-] | < 3.10 | 3.77 |  |  |
| Nc1ncc(-c2ccccc2)n1Cc1ccccc1 | 4.58 | 4.26 |  |  |
| c1cnc(NC2CC2)nc1 |  |  | inactive |  |
| C#CCN(C)c1ncccn1 |  |  | inactive |  |
| Nc1nc(-c2ccccc2)c(-c2ccc(Cl)cc2)[nH]1 |  | 4.33 |  |  |
| c1cnc(NCc2ccc3c(c2)OCO3)nc1 |  |  | inactive |  |
| CCCCNc1ncccn1 |  |  | inactive |  |
| CCn1c(-c2ccc(Br)cc2)cnc1N | 4.22 | 3.90 |  |  |
| CCCCCCCCCCCNc1ncccn1 |  |  | inactive |  |
| CCCNc1ncccn1 |  |  | inactive |  |
| N#Cc1ccc(-c2cnc(N)[nH]2)cc1 |  | 3.50 |  |  |
| CCCCCCCCCCCCNc1ncccn1 |  |  | inactive |  |
| Nc1ncc(-c2ccc(-c3ccccc3)cc2)n1C1CCC1 | 4.61 | 4.58 |  |  |
| Cc1cccc(Nc2ncccn2)c1 |  |  | inactive |  |
| CCCCCCCn1c(-c2ccc(-c3ccccc3)cc2)cnc1N | 4.60 | 5.03 |  | inhibition (Pseudomonas aeruginosa [2]): Active; inhibition (Salmonella typhimurium [6]): Active; inhibition (Pseudomonas aeruginosa [3]): Active; inhibition (Salmonella typhimurium [7]): inactive |
| CCCCCCCCCCCCCn1c(-c2ccc(Cl)cc2)cnc1N | 4.47 | 4.71 |  | inhibition (Salmonella typhimurium [6]): inactive; inhibition (Salmonella typhimurium [8]): inactive |
| CC(C)n1c(-c2ccc([N+](=O)[O-])cc2)cnc1N | < 3.10 | 3.44 |  |  |
| CCCCCCCCCCNc1ncccn1 |  |  | inactive |  |
| C=CCNc1ncccn1 |  |  | inactive |  |
| CC(C)(C)[Si](C)(C)Oc1ccc(CNc2ncccn2)cc1 |  |  | inactive |  |
